Source: the NIST ThermoML archive (doi:10.1016/j.jct.2016.03.018)
± gives the expanded uncertainty stated by the source.

Settings: Liquid, Closed cell (Static) method

Row | vapor or sublimation pressure (253.15 K) | vapor or sublimation pressure (263.15 K) | Structure (SMILES) | vapor or sublimation pressure (273.15 K) | vapor or sublimation pressure (283.15 K) | vapor or sublimation pressure (293.15 K)
1 | 244.1 ± 1.2 kPa | 345.1 ± 1.4 kPa | CCC [propane] | 474.4 ± 1.7 kPa | 636.4 ± 2.1 kPa | 836.3 ± 2.6 kPa
2 |  |  | F/C=C\C(F)(F)F [(Z)-1,3,3,3-tetrafluoro-1-propene] | 68.5 ± 1 kPa | 102.5 ± 1.1 kPa | 148.9 ± 1.1 kPa
